Laboratory results taken from US10508120B2, “TYK2 inhibitors and uses thereof” (Nimbus Lakshmi, Inc., priority 2017, dated 2019).
Like-named read-outs stand apart in the source and are kept apart here.

Tests used:
Tyk2 kinase domain (DH1) = Tyk2 kinase domain (DH1) (Homo sapiens (Human), UniProt P29597); assay: Tyk2 Radioactive Kinase Assay; type: biochemical; conditions: for inhibition at 10 µM: read-out: Tyk2 JH1% Inhibition @ 10 μM
Summary of the method: (§1)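 Values are single-concentration percent inhibition figures. They were obtained with 10 μM compound in a radioactivity-based kinase assay run separately on each enzyme.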

[1] = molecular target: human TYK2 (JH2domain-pseudokinase) (Homo sapiens (Human), UniProt P29597); assay: TYK2 JH2 Domain Binding Assay (KINOMEscan)
Sequence of human TYK2 (JH2domain-pseudokinase) (P29597 556-888): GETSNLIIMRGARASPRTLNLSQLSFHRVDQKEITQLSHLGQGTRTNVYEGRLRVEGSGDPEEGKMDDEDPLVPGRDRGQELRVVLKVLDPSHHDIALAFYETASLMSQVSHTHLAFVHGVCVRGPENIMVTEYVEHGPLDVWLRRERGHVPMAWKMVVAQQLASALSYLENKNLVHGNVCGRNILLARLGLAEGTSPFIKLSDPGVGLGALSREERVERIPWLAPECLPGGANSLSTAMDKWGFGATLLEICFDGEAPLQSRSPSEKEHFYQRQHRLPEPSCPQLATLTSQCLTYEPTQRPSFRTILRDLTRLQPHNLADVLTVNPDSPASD
Summary of the method: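 Displacement of a DNA-tagged TYK2 JH2 fusion (human, aa G556–D888, HEK293 extract, <0.1 nM) from ligand-coated beads over 1 h at RT; binding buffer PBS/0.05% Tween 20/10 mM DTT/0.1% BSA.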

JAK2 kinase domain (JH1) = JAK2 kinase domain (JH1) (Homo sapiens (Human), UniProt O60674); assay: JAK2 Radioactive Kinase Assay; type: biochemical; conditions: for inhibition at 10 µM: read-out: JAK2 JH1% Inhibition @ 10 μM
Sequence of JAK2 kinase domain (JH1) (O60674 849-1124): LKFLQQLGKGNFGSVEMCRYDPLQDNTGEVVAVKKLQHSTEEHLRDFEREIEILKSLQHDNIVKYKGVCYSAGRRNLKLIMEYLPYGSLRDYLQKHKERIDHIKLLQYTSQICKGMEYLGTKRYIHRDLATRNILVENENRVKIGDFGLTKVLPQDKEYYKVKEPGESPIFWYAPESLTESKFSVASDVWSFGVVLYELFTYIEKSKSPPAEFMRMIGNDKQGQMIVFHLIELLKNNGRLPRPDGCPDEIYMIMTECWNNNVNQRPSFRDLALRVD
Summary of the method: as §1

Sequence of Tyk2 kinase domain (DH1) (P29597 897-1176): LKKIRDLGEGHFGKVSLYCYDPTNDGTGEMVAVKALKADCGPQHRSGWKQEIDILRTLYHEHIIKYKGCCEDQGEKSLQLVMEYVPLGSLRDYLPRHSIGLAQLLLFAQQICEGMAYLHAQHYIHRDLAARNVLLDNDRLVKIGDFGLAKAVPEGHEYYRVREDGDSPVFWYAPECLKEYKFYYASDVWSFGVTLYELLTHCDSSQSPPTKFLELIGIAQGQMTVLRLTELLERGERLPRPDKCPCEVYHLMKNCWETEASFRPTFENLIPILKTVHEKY

SMILES | inhibition at 10 µM (Tyk2 kinase domain (DH1); compound at 10 μM, ATP 10 μM) [%] | Kd [1] [nM] | inhibition at 10 µM (JAK2 kinase domain (JH1); compound at 10 μM, ATP 10 μM) [%] | inhibition at 10 µM (Tyk2 kinase domain (DH1); 10 μM compound, 10 μM ATP) [%] | inhibition at 10 µM (JAK2 kinase domain (JH1); 10 μM compound, 10 μM ATP) [%] | Tyk2 JH1% Inhibition @ 10 μM (Tyk2 kinase domain (DH1); 10 μM compound, 10 μM ATP) | JAK2 JH1% Inhibition @ 10 μM (JAK2 kinase domain (JH1); 10 μM compound, 10 μM ATP)
CNc1cc(-c2cn(C(C)C)c3ncccc23)nc2c(C(=O)N[C@H]3C[C@@H]3O)cnn12 (stereo in doubt) [I-733, N-((1 S,2S)-2-hydroxycyclopropyl)-5-(1-isopropyl-1H-pyrrolo[2,3-b]pyridin-3-yl)-7-(methylamino)pyrazolo[1,5-a]pyrimidine-3-carboxamide] | < 50 | < 0.2 | < 50 | – | – | – | –
CNc1cc(-c2cn(C(C)C)c3ncccc23)nc2c(C(=O)N[C@H]3COC[C@H]3O)cnn12 (stereo in doubt) [I-764, N-(4-hydroxytetrahydrofuran-3-yl)-5-(1-isopropyl-1H-pyrrolo[2,3-b]pyridin-3-yl)-7-(methylamino)pyrazolo[1,5-a]pyrimidine-3-carboxamide] | < 50 | < 0.2 | < 50 | – | – | – | –
CNc1cc(-c2cn(CCN3CCOCC3)c3ncccc23)nc2c(C(=O)N[C@H]3COC[C@H]3O)cnn12 (stereo in doubt) [I-791, N-(4-hydroxytetrahydrofuran-3-yl)-7-(methylamino)-5-(1-(2-morpholinoethyl)-1H-pyrrolo[2,3-b]pyridin-3-yl)pyrazolo[1,5-a]pyrimidine-3-carboxamide] | < 50 | 0.2 to 1 | < 50 | – | – | – | –
CNc1cc(-c2cn(CCN3CCN(C)CC3)c3ncccc23)nc2c(C(=O)N[C@H]3CC[C@H]3O)cnn12 (stereo in doubt) [I-851, N-(2-hydroxycyclobutyl)-7-(methylamino)-5-(1-(2-(4-methylpiperazin-1-yl)ethyl)-1H-pyrrolo[2,3-b]pyridin-3-yl)pyrazolo[1,5-a]pyrimidine-3-carboxamide] | – | < 0.2 | – | < 50 | < 50 | – | –
CNc1cc(-c2cn(CCN3CCN(C)CC3)c3ncccc23)nc2c(C(=O)N[C@H]3CC[C@@H]3O)cnn12 (stereo in doubt) [I-852, N-(2-hydroxycyclobutyl)-7-(methylamino)-5-(1-(2-(4-methylpiperazin-1-yl)ethyl)-1H-pyrrolo[2,3-b]pyridin-3-yl)pyrazolo[1,5-a]pyrimidine-3-carboxamide] | – | < 0.2 | – | < 50 | < 50 | – | –
CNc1cc(-c2cn(CCN3CCN(C)CC3)c3ncccc23)nc2c(C(=O)N[C@H]3CC[C@@H]3OC)cnn12 (stereo in doubt) [I-885, N-(2-methoxycyclobutyl)-7-(methylamino)-5-(1-(2-(4-methylpiperazin-1-yl)ethyl)-1H-pyrrolo[2,3-b]pyridine-3-yl)pyrazolo[1,5-a]pyrimidine-3-carboxamide] | – | < 0.2 | – | < 50 | < 50 | – | –
CNc1cc(Nc2cccnc2OC)nc2c(C(=O)N[C@H]3CC[C@@]3(C)O)cnn12 (stereo in doubt) [I-911, N-(2-hydroxy-2-methylcyclobutyl)-5-((2-methoxypyridin-3-yl)amino)-7-(methylamino)pyrazolo[1,5-a]pyrimidine-3-carboxamide] | – | 1 to 10 | – | – | – | A (percent inhibition at 10 μM lower than 50) | A (percent inhibition at 10 μM lower than 50)
CNC(=O)c1occc1Nc1cc(NC)n2ncc(C(=O)N[C@H]3CC[C@@H]3OC)c2n1 (stereo in doubt) [I-1111, N-(2-methoxycyclobutyl)-7-(methylamino)-5-((2-(methylcarbamoyl)furan-3-yl)amino)pyrazolo[1,5-a]pyrimidine-3-carboxamide] | – | < 0.2 | – | < 50 | < 50 | – | –
CNc1cc(Nc2cccn(-c3ccc(N4CCOCC4)cc3)c2=O)nc2c(C(N)=O)cnn12 [I-10] | < 50 | < 0.2 | < 50 | – | – | – | –
CNc1cc(Nc2cnn(C)c2)nc2c(C(N)=O)cnn12 [I-11] | < 50 | 1 to 10 | < 50 | – | – | – | –
CNc1cc(Nc2cccn(-c3nccs3)c2=O)nc2c(C(N)=O)cnn12 [I-15] | < 50 | 0.2 to 1 | < 50 | – | – | – | –
CNc1cc(Nc2cccc(N3CCOCC3)c2Cl)nc2c(C(N)=O)cnn12 [I-18] | < 50 | < 0.2 | < 50 | – | – | – | –
CCOc1ccc(-n2cccc(Nc3cc(NC)n4ncc(C(N)=O)c4n3)c2=O)nn1 [I-19] | < 50 | 1 to 10 | < 50 | – | – | – | –

Further lines, with some results ahead:

inhibition at 10 µM (Tyk2 kinase domain (DH1); compound at 10 μM, ATP 10 μM) [%] | Kd [1] [nM] | inhibition at 10 µM (JAK2 kinase domain (JH1); compound at 10 μM, ATP 10 μM) [%] | inhibition at 10 µM (Tyk2 kinase domain (DH1); 10 μM compound, 10 μM ATP) [%] | inhibition at 10 µM (JAK2 kinase domain (JH1); 10 μM compound, 10 μM ATP) [%] | SMILES | Tyk2 JH1% Inhibition @ 10 μM (Tyk2 kinase domain (DH1); 10 μM compound, 10 μM ATP) | JAK2 JH1% Inhibition @ 10 μM (JAK2 kinase domain (JH1); 10 μM compound, 10 μM ATP)
< 50 | 0.2 to 1 | < 50 | – | – | CNc1cc(Nc2cccn([C@H]3CCCOC3)c2=O)nc2c(C(=O)N[C@H]3CC[C@H](O)C3)cnn12 (stereo in doubt) [I-701, N-(3-hydroxycyclopentyl)-7-(methylamino)-5-((2-oxo-1-((R)-tetrahydro 2H-pyran-3-yl)-1,2-dihydropyridin-3-yl)amino)pyrazolo[1,5-a]pyrimidine-3-carboxamide] | – | –
< 50 | 0.2 to 1 | < 50 | – | – | CNc1cc(Nc2cccn([C@@H]3CCCOC3)c2=O)nc2c(C(=O)N[C@H]3CC[C@H](O)C3)cnn12 (stereo in doubt) [I-702, N-(3-hydroxycyclopentyl)-7-(methylamino)-5-((2-oxo-1-((S)-tetrahydro-2H-pyran-3-yl)-1,2-dihydropyridin-3-yl)amino)pyrazolo[1,5-a]pyrimidine-3-carboxamide] | – | –
< 50 | 0.2 to 1 | < 50 | – | – | CNc1cc(Nc2cccn([C@H]3CCCOC3)c2=O)nc2c(C(=O)N[C@H]3CCC[C@H](O)C3)cnn12 (stereo in doubt) [I-704, N-(3-hydroxycyclohexyl)-7-(methylamino)-5-((2-oxo-1-((R)-tetrahydro-2H-pyran-3-yl)-1,2-dihydropyridin-3-yl)amino)pyrazolo[1,5-a]pyrimidine-3-carboxamide] | – | –
– | < 0.2 | – | < 50 | < 50 | CNc1cc(Nc2cccn([C@H]3C[C@@H]3F)c2=O)nc2c(C(=O)NCC3(CO)CC3)cnn12 (stereo in doubt) [I-1061, 5-((1-(2-fluorocyclopropyl)-2-oxo-1,2-dihydropyridin-3-yl)amino)-N-((1-(hydroxymethyl)cyclopropyl)methyl)-7-(methylamino)pyrazolo[1,5-a]pyrimidine-3-carboxamide] | – | –
– | 0.2 to 1 | – | < 50 | < 50 | CNc1cc(Nc2cccn(C3CCCCC3)c2=O)nc2c(C(=O)N[C@H]3COC[C@H]3O)cnn12 (stereo in doubt) [I-1112, 5-((1-cyclohexyl-2-oxo-1,2-dihydropyridin-3-yl)amino)-N-(4-hydroxytetrahydrofuran-3-yl)-7-(methylamino)pyrazolo[1,5-a]pyrimidine-3-carboxamide] | – | –
– | > 10 | – | < 50 | < 50 | CNc1cc(Nc2cccn(C(C)C)c2=O)nc2c(C(=O)N[C@H]3CC[C@@]3(C)O)cnn12 (stereo in doubt) [I-1116, N-(2-hydroxy-2-methylcyclobutyl)-5-((1-isopropyl-2-oxo-1,2-dihydropyridin-3-yl)amino)-7-(methylamino)pyrazolo[1,5-a]pyrimidine-3-carboxamide] | – | –
< 50 | 1 to 10 | < 50 | – | – | CNc1cc(Nc2cccn(C3CCCCC3)c2=O)nc2c(C(N)=O)cnn12 [I-12] | – | –
< 50 | < 0.2 | < 50 | – | – | CNc1cc(Nc2cccn(-c3ccn(C4CC4)n3)c2=O)nc2c(C(N)=O)cnn12 [I-20] | – | –
